The experiment has as its system human esophageal cancer Eca-109 nude mouse xenograft tumor. Nature of the experiment: Efficacy of DVDMS-PDT combined with PD-1 antibody in mouse model of human esophageal cancer Eca-109. Conditions: Only received DVDMS-PDT, DVDMS 2 mg/kg, laser 70 J/cm2, Day 21. The experiment is classed as in vivo, nu/nu nude mice. An excerpt: Example 1. Efficacy of combined therapy of sodium porphyrine-mediated photodynamic therapy (DVDMS-PDT) with PD-1 antibody in a mouse model of human esophageal cancer Eca-109
Purpose: observe the growth-inhibiting effect of DVDMS-PDT combined with PD-1 antibody (Pembrolizumab) on human esophageal cancer Eca-109 nude mouse xenograft tumor, optimize the time window between DVDMS-PDT and PD-1 antibody treatment, and provide a reference for clinical application.
Harvest human esophageal cancer Eca-109 cells at logarithmic growth phase and dilute with culture medium to a cell concentration of 5*10^7 cells/mL, and inoculate subcutaneously at the right thigh root of nude mice at an injection of 0.1 mL per nude mouse. And 7-10 days later, grow the subcutaneous tumor at the root of the thigh on the right side of the nude mouse until the diameter is about 5-8 mm for later use.
Select qualified tumor-bearing mouse models as described above, measure the length and the width of the tumors using a vernier caliper, and stratify and group the mice according to tumor size, with 6 mice in each group. Prepare the sodium porphyrine DVDMS-2 for injection 24 hours before the experiment, and refrigerate in the dark before use. Administer DVDMS-2 via tail vein at a dose of 2 mg/kg body weight (Day-1), followed by PDT treatment 24 hours later (Day 0). […]

SMILES strings stand for the structures.

In the case of `C=CC1=C(C)c2cc3[nH]c(cc4nc(cc5[nH]c(cc1n2)c(C)c5C(C)OC(C)C1=C(C)c2cc5[nH]c(cc6nc(cc7[nH]c(cc1n2)c(C)c7CCC(=O)[O-])C(CCC(=O)[O-])=C6C)c(C)c5C=C)C(C)=C4CCC(=O)[O-])c(CCC(=O)[O-])c3C.[Na+].[Na+].[Na+].[Na+]` (centres unmarked) [DVDMS-PDT, bis [1-[6,7-sodium dipropionate-1,3,5,8-tetramethyl-2-vinyl-4-porphine]ethyl]ether], the “Tumor growth inhibition rate(%)” value worked out at 66.8%. Also, for the setting “in g (unit assumed)”, the Tumor weight stood at 0.43 ± 0.58.

(Values after patent US20260069696A1, “Combined therapy of photodynamic therapy and immune checkpoint inhibitor” (Shanghai Guang Sheng Pharmaceutical Co., Ltd., priority 2023, published 2026).)
